Data as given in patent publication US12280026B2, “Use of repirinast in the prophylaxis or treatment of renal fibrosis or kidney disease” (ALGERNON PHARMACEUTICALS INC., priority 2018, dated 2025).
“Also recorded” adds a separate entry of the source.

Test system: C57BL/6 mice with UUO surgical ligation
Assay: Example 1: UUO mice, kidney weight evaluation (ligated vs non-ligated kidney)
Format: in vivo
Conditions: doses of Table 1 (Telmisartan 5 mg/kg)
Protocol: Male 9-12 week old C57BL/6 mice of 23-25 grams body weight were used. All mice were acclimated for a minimum of 5 days prior to the start of the study and housed individually in microisolators throughout the study in a 12:12 light-dark cycle on a standard maintenance mouse chow diet (Harlan Teklad 2018) with food and water given ad libitum. Prior to surgery, all mice were weighed for baseline body weight.
The UUO surgical intervention was performed according to previously described methods known in the art (Le Meur Y et al., Macrophage accumulation at a site of renal inflammation is dependent on the M-CSF/c-fms pathway, J Leukocyte Biol., 72:530-537; 2002). […]
The dose selected for the animal studies was determined by taking the maximum known human daily dose, dividing by the average weight of an adult (˜60-70 kg) to get a human mg/kg dose. […]
Kidney weight: The UUO was then examined in situ to ensure that the surgical ligation ties remained patent. […] Weights of both kidneys were measured using a laboratory balance.
Kidney Weight Evaluation: Kidney weight indicating, which indicates functional and pathological changes in the kidney, was evaluated by measuring the weight of both the ligated (UUO) and non-ligated kidneys as previously described. […]

## CCCc1nc2c(C)cc(-c3nc4ccccc4n3C)cc2n1Cc1ccc(-c2ccccc2C(=O)O)cc1 [Telmisartan, 2-(4-{[4-Methyl-6-(1-methyl-1H-1,3-benzodiazol-2-yl)-2-propyl-1H-1,3-benzodiazol-1-yl]methyl}phenyl)benzoic acid]
  Disparity in weight between ligated and non-ligated kidney, in words: greatest numerical reduction in the disparity between the two kidneys; also recorded: appeared to reduce the disparity in kidney size
